# Values quoted from earlier work as cited in patent US12343373B2, “Glycopeptide antibiotics liquid formulations and methods and uses thereof” (SOMERSET THERAPEUTICS, LLC, priority 2020, dated 2025).
# Where two headings read alike, the source gives them in different places.
# Key:
# [1] = oral dosing
Compound,hydrolysis to methionine [1],other results
"CC(=O)N[C@H](C)C(=O)O [N-acetyl D-alanine (NADA), N-acetyl-D-alanine]",,"embryo-fetal toxicity (animal reproduction studies, product label black box warning): caused fetal malformations"
"CSCC[C@@H](NC(C)=O)C(=O)O [NADM, N-acetyl-D-methionine]",only minimally hydrolyzed to D- and L-methionine,
"CSCC[C@H](NC(C)=O)C(=O)O [NALM, N-acetyl-L-methionine]",completely hydrolyzed to L-methionine and acetic acid,
polyethylene glycol 400 [polyethylene glycol (PEG 400)],,embryo-fetal toxicity (in vivo): caused fetal malformations
